Measured values taken from patent US20260365628A1, “SUBSTITUTED 3,4-DIHYDROQUINOLINONE INHIBITORS OF TSHR” (Septerna, Inc., priority 2022, published 2026).

target: T1, hTSHR (Homo sapiens, UniProt P16473); experiment: hTSHR TR-FRET cAMP Assay (inhibition of M22-stimulated cAMP production); type: cell-based; conditions: not given
T1 construct: expressed in transfected cells
Procedure: Assays were performed using Expi293F Inducible cells (Invitrogen) stably expressing hTSHR via a pcZeo TetO DNA plasmid. Cell lines were maintained in suspension in Expi293 Expression Medium (ThermoFisher Scientific) supplemented with 10 µg/mL Blasticidin and 10 μg/mL Zeocin and incubated at 37° C., 8% CO2, with shaking. hTSHR cells were incubated overnight at 32° C., 5% C02, with shaking, but […] Doxycycline. Assay-ready aliquots were prepared by harvesting each cell type separately 24-hours post-induction. Cells were pelleted at 4° C., resuspended in Expi293 Expression media+10% DMSO, aliquoted, and kept frozen at −80° C. until ready for use.
For the assay, concentration-response curves of test and reference compounds were added to 384-well plates using an Echo 650 liquid handler (Beckman Coulter) and backfilled with DMSO to a final concentration of 0.5%. cAMP was measured using the cisbio cAMP Gs dynamic HTRF kit (PerkinElmer) according to manufacturer instructions. Aliquots of frozen hTSHR cells were quickly thawed and washed with phosphate-buffered saline (Sigma-Aldrich) to remove media and DMSO. The cells were resuspended in kit-supplied Stimulation Buffer at 0.8×10^6 cells/mL. 7.5 μL of the hTSHR cell dilution were added to each well of the assay plate and incubated with the compounds for 15 minutes in a 37 C, 0% CO2 incubator. 2.5 μL of Vehicle control or an EC80 concentration of recombinant human anti-TSHR antibody (M22, Creative Biolabs) was added to stimulate cAMP production. Cells were incubated with for 30 minutes at 37° C., 0% CO2. Following this incubation, the cells were lysed and accumulated cAMP was detected through the addition of kit-supplied lysis buffer containing d2-reagent and Eu-cryptate antibody. The HTRF signal was quantified using a BMG Clariostar plate reader optimized for HTRF assays. The HTRF ratio was determined by dividing the signal output at […] by that at 620 nm. Data were normalized to the signal produced by the EC80 concentration of either M22 or FSH (0% inhibition) and vehicle (no agonist, 100% inhibition).

T1 sequence (P16473 21-764): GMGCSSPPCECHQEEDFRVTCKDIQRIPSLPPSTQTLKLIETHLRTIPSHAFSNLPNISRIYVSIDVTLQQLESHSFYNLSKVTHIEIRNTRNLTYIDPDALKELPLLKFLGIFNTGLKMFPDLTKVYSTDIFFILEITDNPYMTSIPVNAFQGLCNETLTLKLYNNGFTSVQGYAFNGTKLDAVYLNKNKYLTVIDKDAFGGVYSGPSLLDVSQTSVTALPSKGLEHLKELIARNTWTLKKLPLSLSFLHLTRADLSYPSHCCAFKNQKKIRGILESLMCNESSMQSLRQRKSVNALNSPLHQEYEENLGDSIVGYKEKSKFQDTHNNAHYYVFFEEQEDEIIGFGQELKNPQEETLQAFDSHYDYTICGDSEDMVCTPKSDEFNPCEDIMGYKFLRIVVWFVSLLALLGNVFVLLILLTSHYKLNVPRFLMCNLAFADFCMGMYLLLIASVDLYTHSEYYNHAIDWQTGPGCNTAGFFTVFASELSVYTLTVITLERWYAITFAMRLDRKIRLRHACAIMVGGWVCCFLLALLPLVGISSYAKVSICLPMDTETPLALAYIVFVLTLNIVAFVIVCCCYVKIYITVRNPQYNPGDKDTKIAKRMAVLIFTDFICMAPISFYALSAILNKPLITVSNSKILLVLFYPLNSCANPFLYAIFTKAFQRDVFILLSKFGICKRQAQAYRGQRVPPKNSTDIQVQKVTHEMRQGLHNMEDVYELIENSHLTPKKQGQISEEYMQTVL

Structure (SMILES) | IC50
CC(C)(C)NC(=O)Oc1ccc2c(c1)CCC(=O)N2Cc1ccccc1 [Example 63] | > 1000 nM

same assay, conditions: Expi293F Inducible cells stably expressing hTSHR; cAMP HTRF; stimulated with EC80 of anti-TSHR antibody M22; 15 min compound preincubation, 30 min at 37° C.; read-out: Activity (IC50 bins)

IC50 | Structure (SMILES)
< 100 nM | C[C@@H](c1cccc(C(F)(F)F)c1)N1C(=O)COc2cc(NC(=O)NC(C)(C)C)ccc21 [Example 62, (S)-1-(tert-butyl)-3-(3-oxo-4-(1-(3-(trifluoromethyl)phenyl)ethyl)-3,4-dihydro-2H-benzo[b][1,4]oxazin-7-yl)urea]
< 100 nM | CN1Cc2cc(NC(=O)NC(C)(C)C)ccc2N(Cc2cccc(C(F)(F)F)c2)C1=O [Example 70, 1-(tert-butyl)-3-(3-methyl-2-oxo-1-(3-(trifluoromethyl)benzyl)-1,2,3,4-tetrahydroquinazolin-6-yl)urea]
100 to 1000 nM | CC(C)(C)NC(=O)Nc1ccc2c(c1)OCC(=O)N2Cc1cccc(C(F)F)c1 [Example 71, 1-(tert-butyl)-3-(4-(3-(difluoromethyl)benzyl)-3-oxo-3,4-dihydro-2H-benzo[b][1,4]oxazin-7-yl)urea]
> 1000 nM | CC(C)(C)NC(=O)Nc1ccc2c(c1)OCC(=O)N2Cc1cccc(CO)c1 [Example 72, 1-(tert-butyl)-3-(4-(3-(hydroxy-methyl)ben-zyl)-3-oxo-3,4-dihydro-2H-benzo[b][1,4]oxa-zin-7-yl)urea]
100 to 1000 nM | CC(C)(C)NC(=O)Nc1ccc2c(c1)OCC(=O)N2Cc1cccc(C2CC2)c1 [Example 73, 1-(tert-butyl)-3-(4-(3-cyclopropylbenzyl)-3-oxo-3,4-dihydro-2H-benzo[b][1,4]oxa-zin-7-yl)urea]
100 to 1000 nM | CC(C)(C)NC(=O)Nc1ccc2c(c1)OCC(=O)N2Cc1cccc(OC(F)(F)F)c1 [Example 74, 1-(tert-butyl)-3-(3-oxo-4-(3-(tri-fluoromethoxy)ben-zyl)-3,4-dihydro-2H-benzo[b][1,4]oxa-zin-7-yl)urea]
100 to 1000 nM | CC(C)Oc1cccc(CN2C(=O)COc3cc(NC(=O)NC(C)(C)C)ccc32)c1 [Example 75, 1-(tert-butyl)-3-(4-(3-isopropoxybenzyl)-3-oxo-3,4-dihydro-2H-benzo[b][1,4]oxa-zin-7-yl)urea]
100 to 1000 nM | CC(C)(C)NC(=O)Nc1ccc2c(c1)OCC(=O)N2Cc1cccc(C(O)C(F)(F)F)c1 (stereo not drawn) [Example 77, 1-(tert-butyl)-3-(3-oxo-4-(3-(2,2,2-trifluoro-1-hy-droxyethyl)benzyl)-3,4-dihydro-2H-benzo[b][1,4]oxa-zin-7-yl)urea]
100 to 1000 nM | CC(C)(C)NC(=O)Nc1ccc2c(c1)OCC(=O)N2Cc1cccc([C@@H](O)C(F)(F)F)c1 [Example 78, (R)-1-(tert-butyl)-3-(3-oxo-4-(3-(2,2,2-trifluoro-1-hydroxyethyl)ben-zyl)-3,4-dihydro-2H-benzo[b][1,4]oxa-zin-7-yl)urea]
100 to 1000 nM | CC(C)(C)NC(=O)Nc1ccc2c(c1)OCC(=O)N2Cc1cccc([C@H](O)C(F)(F)F)c1 [Example 79, (S)-1-(tert-butyl)-3-(3-oxo-4-(3-(2,2,2-trifluoro-1-hy-droxyethyl)benzyl)-3,4-dihydro-2H-benzo[b][1,4]oxa-zin-7-yl)urea]
100 to 1000 nM | CC(C)(C)NC(=O)Nc1ccc2c(c1)OCC(=O)N2Cc1cccc(C(O)CC(F)(F)F)c1 (stereo not drawn) [Example 80, 1-(tert-butyl)-3-(3-oxo-4-(3-(3,3,3-trifluoro-1-hydroxypropyl)ben-zyl)-3,4-dihydro-2H-benzo[b][1,4]oxa-zin-7-yl)urea]
< 100 nM | C[C@H]1Oc2cc(NC(=O)NC(C)(C)C)ccc2N(Cc2cccc(C(F)(F)F)c2)C1=O [Example 81]
100 to 1000 nM | C[C@@H]1Oc2cc(NC(=O)NC(C)(C)C)ccc2N(Cc2cccc(C(F)(F)F)c2)C1=O [Example 82]
> 1000 nM | C[C@H]1Oc2cc(NC(=O)NC(C)(C)C)ccc2N(Cc2cc(C(F)(F)F)ccc2C#N)C1=O [Example 83, (R)-1-(tert-butyl)-3-(4-(2-cyano-5-(trifluoromethyl)benzyl)-2-methyl-3-oxo-3,4-dihydro-2H-benzo[b][1,4]oxazin-7-yl)urea]
100 to 1000 nM | C[C@@H]1Oc2cc(NC(=O)NC(C)(C)C)ccc2N(Cc2cc(C(F)(F)F)ccc2C#N)C1=O [Example 84, (S)-1-(tert-butyl)-3-(4-(2-cyano-5-(trifluoromethyl)benzyl)-2-methyl-3-oxo-3,4-dihydro-2H-benzo[b][1,4]oxazin-7-yl)urea]

Continued, compound first:

Structure (SMILES) | IC50
CC(C)(C)NC(=O)Nc1ccc2c(c1)CCC(=O)N2CC1CCCCC1 [Example 64, 1-(tert-butyl)-3-(1-(cyclohexylmethyl)-2-oxo-1,2,3,4-tetrahydroquinolin-6-yl)urea] | > 1000 nM
CC(C)(C)NC(=O)Nc1cc2c(cc1F)N(Cc1ccccc1)C(=O)CC2 [Example 65, 1-(1-benzyl-7-fluoro-2-oxo-1,2,3,4-tetrahydroquinolin-6-yl)-3-(tert-butyl)urea] | 100 to 1000 nM
CC(C)(C)NC(=O)Nc1cc2c(cc1Cl)N(Cc1ccccc1)C(=O)CC2 [Example 66, 1-(1-benzyl-7-chloro-2-oxo-3,4-dihydroquinolin-6-yl)-3-tert-butylurea] | 100 to 1000 nM
CC(C)(C)NC(=O)Nc1ccc2c(n1)CCC(=O)N2Cc1ccccc1 [Example 67, 1-(5-benzyl-6-oxo-5,6,7,8-tetrahydro-1,5-naphthyridin-2-yl)-3-(tert-butyl)urea] | 100 to 1000 nM
CC(C)(C)NC(=O)Nc1ccc2c(c1)ncc(=O)n2Cc1ccccc1 [Example 68, 1-(1-benzyl-2-oxo-1,2-dihydroquinoxalin-6-yl)-3-(tert-butyl)urea] | < 100 nM
CC(C)(C)NC(=O)Nc1cc(F)c2c(c1)CCC(=O)N2Cc1ccccc1 [Example 69, 1-(1-benzyl-8-fluoro-2-oxo-1,2,3,4-tetrahydroquinolin-6-yl)-3-(tert-butyl)urea] | 100 to 1000 nM
CC(C)(C)NC(=O)Nc1ccc2c(c1)OCC(=O)N2Cc1cccc2cn[nH]c12 [Example 76, 1-(4-((1H-indazol-7-y1)methyl)-3-oxo-3,4-dihydro-2H-benzo[b][1,4]oxa-zin-7-yl)-3-(tert-butyl)urea] | > 1000 nM
C[C@H]1Oc2cc(NC(=O)NC(C)(C)C)ccc2N(Cc2cc(Cl)ccc2C#N)C1=O [Example 85, (R)-1-(tert-butyl)-3-(4-(5-chloro-2-cyanobenzyl)-2-methyl-3-oxo-3,4-dihydro-2H-benzo[b][1,4]oxazin-7-yl)urea] | 100 to 1000 nM
C[C@@H]1Oc2cc(NC(=O)NC(C)(C)C)ccc2N(Cc2cc(Cl)ccc2C#N)C1=O [Example 86, (S)-1-(tert-butyl)-3-(4-(5-chloro-2-cyanobenzyl)-2-methyl-3-oxo-3,4-dihydro-2H-benzo[b][1,4]oxazin-7-yl)urea] | > 1000 nM
Cc1ccc(C#N)c(CN2C(=O)[C@@H](C)Oc3cc(NC(=O)NC(C)(C)C)ccc32)c1 [Example 87, (R)-1-(tert-butyl)-3-(4-(2-cyano-5-methylbenzyl)-2-methyl-3-oxo-3,4-dihydro-2H-benzo[b][1,4]oxazin-7-yl)urea] | > 1000 nM
Cc1ccc(C#N)c(CN2C(=O)[C@H](C)Oc3cc(NC(=O)NC(C)(C)C)ccc32)c1 [Example 88, (S)-1-(tert-butyl)-3-(4-(2-cyano-5-methylbenzyl)-2-methyl-3-oxo-3,4-dihydro-2H-benzo[b][1,4]oxazin-7-yl)urea] | > 1000 nM
CC(C)(C)NC(=O)Nc1ccc2c(c1)ncc(=O)n2Cc1cccc(Cl)c1 [Example 89, 1-(tert-butyl)-3-(1-(3-chlorobenzyl)-2-oxo-1,2-dihydroquinoxalin-6-yl)urea] | 100 to 1000 nM
CC(C)(C)NC(=O)Nc1ccc2c(c1)ncc(=O)n2Cc1cccc(C(F)(F)F)c1 [Example 90, 1-(tert-butyl)-3-(2-oxo-1-(3-(trifluoro-methyl)benzyl)-1,2-di-hydro-quinoxalin-6-yl)urea] | 100 to 1000 nM
CC(C)(C)NC(=O)Nc1ccc2c(c1)ncc(=O)n2Cc1cccc(OC(F)(F)F)c1 [Example 91, 1-(tert-butyl)-3-(2-oxo-1-(3-(trifluoro-methoxy)benzyl)-1,2-di-hydro-quinoxalin-6-yl)urea] | 100 to 1000 nM
CC(C)(C)NC(=O)Nc1ccc2c(c1)ncc(=O)n2Cc1cccc(CCC(F)(F)F)c1 [Example 92, 1-(tert-butyl)-3-(2-oxo-1-(3-(3,3,3-trifluoro-propyl)benzyl)-1,2-dihydro-quinoxalin-6-yl)urea] | 100 to 1000 nM
CC(C)(C)NC(=O)Nc1ccc2c(c1)ncc(=O)n2Cc1cccc(CCCC(F)(F)F)c1 [Example 93, 1-(tert-butyl)-3-(2-oxo-1-(3-(4,4,4-trifluoro-butyl)benzyl)-1,2-dihydro-quinoxalin-6-yl)urea] | < 100 nM
CC(C)(C)NC(=O)Nc1ccc2c(c1)ncc(=O)n2Cc1cccc(CC(F)(F)F)c1 [Example 94, 1-(tert-butyl)-3-(2-oxo-1-(3-(2,2,2-trifluoro-ethyl)benzyl)-1,2-dihydro-quinoxalin-6-yl)urea] | 100 to 1000 nM
